In test [1] the target is T1, human 5-HT1A receptor (Homo sapiens, UniProt P08908).
T1 construct: expressed in transfected cells
T1 sequence (P08908 1-422): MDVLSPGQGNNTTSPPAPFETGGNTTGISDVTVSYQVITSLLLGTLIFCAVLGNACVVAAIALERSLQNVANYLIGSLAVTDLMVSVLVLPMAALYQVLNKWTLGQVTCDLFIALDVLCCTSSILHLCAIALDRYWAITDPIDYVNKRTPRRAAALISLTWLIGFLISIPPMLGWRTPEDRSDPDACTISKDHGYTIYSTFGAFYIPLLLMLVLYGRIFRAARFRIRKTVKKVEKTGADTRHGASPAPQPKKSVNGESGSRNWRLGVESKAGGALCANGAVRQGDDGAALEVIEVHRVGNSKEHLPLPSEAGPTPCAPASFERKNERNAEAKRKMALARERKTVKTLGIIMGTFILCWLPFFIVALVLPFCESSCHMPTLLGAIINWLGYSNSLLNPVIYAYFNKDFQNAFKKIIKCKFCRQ
Description: cAMP measurements, antagonist mode: block of 8-OH-DPAT-induced inhibition of forskolin-stimulated cAMP. It counts as cell-based. How it is done: The PCR cloning of the human 5-HT1A receptor subtype from a human genomic library has been described previously (Chanda et al., Mol. Pharmacol., 43:516 (1993)). A stable Chinese hamster ovary cell line expressing the human 5-HT1A receptor subtype (5-HT1A.CHO cells) was employed throughout this study. Cells were maintained in DMEM supplemented with 10% fetal calf serum, non-essential amino acids and penicillin/streptomycin. Measurements were performed as described in Dunlop, J. et al., supra. Assays were performed by incubating the cells with DMEM containing 25 mM HEPES, 5 mM theophylline and 10 μM pargyline for a period of 20 minutes at 37° C. […] The reaction was terminated by removal of the media and addition of 0.5 ml ice cold assay buffer. Plates were stored at −20° C. prior to assessment of cAMP formation by a cAMP SPA assay (Amersham). Compounds of the invention were tested according to the protocol described. […] Compounds having 5-HT1A antagonist activity show no effect on forskolin-induced increases in cAMP levels on their own, but block the 8-OH-DPAT-induced inhibition of forskolin-stimulated increases in cAMP levels. Results are required as IC50 values (Table 1, “Antagonist Activity IC50”)

The target in test [2] is T1, human 5-HT1A receptor. Description: Radioligand binding with [3H]8-OH-DPAT on membranes of 5-HT1A.CHO cells. The protocol:
The PCR cloning of the human 5-HT1A receptor subtype from a human genomic library has been described previously (Chanda et al., Mol. Pharmacol., 43:516 (1993)). A stable Chinese hamster ovary cell line expressing the human 5-HT1A receptor subtype (5-HT1A.CHO cells) was employed throughout this study. Cells were maintained in DMEM supplemented with 10% fetal calf serum, non-essential amino acids and penicillin/streptomycin. Radioligand binding assays were performed as described in Dunlop, J. et al., J. Pharmacol. and Toxicol. Methods 40: 47-55 (1998), which is incorporated by reference. Cells were grown to 95-100% confluency as a monolayer before membranes were harvested for binding studies. Cells were gently scraped from the culture plates, transferred to centrifuge tubes, and washed twice by centrifugation (2000 rpm for 10 min., 4° C.) in buffer (50 mM Tris; pH 7.5). The resulting pellets were aliquoted and placed at −80° C. On the day of assay, the cells were thawed on ice, and resuspended in buffer. Studies were conducted using [^3H]8-OH-DPAT as the radioligand. The binding assay was performed in 96 well microtiter plates in a final total volume of 250 μL of buffer. Competition experiments were performed by using seven different concentrations of unlabelled drug and a final ligand concentration of 1.5 nM. Non-specific binding was determined in the presence of 10 μM 5HT. Saturation analysis was conducted by using [^3H]8-OH-DPAT at concentrations ranging from 0.3-30 nM. Following a 30 minute incubation at room temperature, the reaction was terminated by the addition of ice cold buffer and rapid filtration using a M-96 Brandel Cell Harvester (Gaithersburg, Md.) through a GF/B filter presoaked for 30 minutes in 0.5% polyethyleneimine. Table 1 provides Ki values for the tested compounds.

The target of test [3] is T1, human 5-HT1A receptor. Description: cAMP measurements, agonist mode: inhibition of forskolin-induced increase in cAMP. It counts as cell-based. The settings on record: forskolin 1 uM, 5-HT1A.CHO cells. How it is done: The PCR cloning of the human 5-HT1A receptor subtype from a human genomic library has been described previously (Chanda et al., Mol. Pharmacol., 43:516 (1993)). A stable Chinese hamster ovary cell line expressing the human 5-HT1A receptor subtype (5-HT1A.CHO cells) was employed throughout this study. Cells were maintained in DMEM supplemented with 10% fetal calf serum, non-essential amino acids and penicillin/streptomycin.
Measurements were performed as described in Dunlop, J. et al., supra. Assays were performed by incubating the cells with DMEM containing 25 mM HEPES, 5 mM theophylline and 10 μM pargyline for a period of 20 minutes at 37° C. Functional activity was assessed by treating the cells with forskolin (1 uM final concentration) followed immediately by test compound (6 different concentrations) for an additional 10 minutes at 37° C. In separate experiments, 6 concentrations of antagonist were preincubated for 20 min prior to the addition of 10 nM 8-OH-DPAT and forskolin. The reaction was terminated by removal of the media and addition of 0.5 ml ice cold assay buffer. Plates were stored at −20° C. prior to assessment of cAMP formation by a cAMP SPA assay (Amersham). […]

The mark [4] stands for this setting: 10 nM 8-OH-DPAT and forskolin, 5-HT1A.CHO cells, read-out: Antagonist Activity IC50.
Setting [5] is: [3H]8-OH-DPAT 1.5 nM, 5-HT1A.CHO cell membranes, read-out: 5-HT1A Affinity Ki.

Where two headings read alike, the source gives them in different places.

As for `COc1cc(N2CCN(C3CCN(c4cccc5cccnc45)CC3)CC2)c2ncccc2c1` [A, 6-Methoxy-8-{4-[1-(8-quinolinyl)-4-piperidinyl]-1-piperazinyl}quinoline], in test [1] (setting [4]), the concentration for half-maximal inhibition (IC50) (in general, the concentration that gives 50% inhibition) stood at 3.86 nM. Besides, the Ki (in general, a measure of affinity in units of concentration, obtained from inhibition or displacement) in test [2] (setting [5]) is 0.4 nM. For `Fc1cc(N2CCN(C3CCN(c4cccc5cccnc45)CC3)CC2)c2ncccc2c1` [B, 6-fluoro-8-{4-[1-(8-quinolinyl)-4-piperidinyl]-1-piperazinyl}quinoline], in that order: 25 nM and 0.46 nM. As to `Fc1ccc(N2CCC(N3CCN(c4cccc5cccnc45)CC3)CC2)c2ncccc12` [C, 5-fluoro-8-{4-[4-(8-quinolinyl)-1-piperazinyl]-1-piperidinyl}-quinoline], the inhibition constant Ki in test [2] (setting [5]) was determined as 0.24 nM. In test [3], the EC50 (usually the concentration giving half of the maximal effect) was determined as 6.85 nM. As for `c1cnc2c(N3CCC(N4CCN(c5cccc6[nH]ccc56)CC4)CC3)cccc2c1` [D, 8-{4-[4-(1H-indole-4-yl)-1-piperazinyl]-1-piperidinyl}quinoline], in test [1], the IC50 amounted to 24 nM. Besides, in test [2] (setting [5]), the Ki was 0.59 nM. For the molecule `c1cc2c(c(N3CCN(C4CCN(c5cccc6cccnc56)CC4)CC3)c1)OCCO2` [E, 8-{4-[4-(2,3-dihydro-1,4-benzo[1,4]dioxane-5-yl)-1-piperazinyl]-1-piperidinyl}quinoline], the inhibitory constant (Ki) in test [2] (setting [5]) came to 0.38 nM. Moreover, in test [3], the EC50 is 2.4 nM. For `c1cnc2c(N3CCC(N4CCN(c5cccc6cccnc56)CC4)CC3)cccc2c1` [Example 3, 8-{4-[1-(8-quinolinyl)-4-piperidinyl]-1-piperazinyl}quinoline] the same measures were 0.4 nM and 10 nM. `Clc1cc(N2CCC(N3CCN(c4cc(Cl)cc5cccnc45)CC3)CC2)c2ncccc2c1` [Example 4, 6-chloro-8-{4-[4-(6-chloro-8-quinolinyl)-1-piperazinyl]-1-piperidinyl}quinoline]: the Ki in test [2] (setting [5]) is 500 nM. Regarding `Fc1cc(N2CCN(C3CCN(c4cc(Cl)cc5cccnc45)CC3)CC2)c2ncccc2c1` [Example 5, 8-{4-[1-(6-chloro-8-quinolinyl)-4-piperidinyl]-1-piperazinyl}-6-fluoroquinoline], the Ki in test [2] (setting [5]) is 106 nM.

On to `Clc1ccc(N2CCN(C3CCN(c4cccc5cccnc45)CC3)CC2)c2ncccc12` [Example 8, 5-chloro-8-{4-[1-(8-quinolinyl)-4-piperidinyl]-1-piperazinyl}quinoline], for which the inhibition constant (Ki) in test [2] (setting [5]) stood at 0.31 nM. In test [3], this molecule returned an EC50 of 20 nM. For `Cc1ccc2cccc(N3CCN(C4CCN(c5cccc6cccnc56)CC4)CC3)c2n1` [Example 10, 2-methyl-8-{4-[1-(8-quinolinyl)-4-piperidinyl]-1-piperazinyl}quinoline] the same measures were 0.83 nM and 3.28 nM. For `Clc1cc(N2CCN(C3CCN(c4cccc5cccnc45)CC3)CC2)c2ncccc2c1` [Example 11, 6-chloro-8-{4-[1-(8-quinolinyl)-4-piperidinyl]-1-piperazinyl}quinoline], in that order: 0.48 nM and 3.84 nM.

As to `FC(F)(F)c1ccc(N2CCN(C3CCN(c4cccc5cccnc45)CC3)CC2)c2ncccc12` [Example 12, 8-{4-[1-(8-quinolinyl)-4-piperidinyl]-1-piperazinyl}-5-(trifluoromethyl)quinoline], the IC50 in test [1] (setting [4]) came to 35.5 nM. Moreover, the inhibitory constant (Ki) in test [2] (setting [5]) was determined as 3.04 nM. For `COc1ccc(N2CCN(C3CCN(c4cccc5cccnc45)CC3)CC2)c2ncccc12` [Example 14, 5-Methoxy-8-{4-[1-(8-quinolinyl)-4-piperidinyl]-1-piperazinyl}-quinoline], in that order: 64.5 nM and 1.45 nM.

Turning to `Fc1ccc(N2CCN(C3CCN(c4cccc5cccnc45)CC3)CC2)c2ncccc12` [Example 15], in test [1] (setting [4]), the IC50 came to 23.5 nM. The inhibition constant (Ki) in test [2] (setting [5]) came out at 0.15 nM. For `Clc1cc(N2CCC(N3CCN(c4coc5ccccc45)CC3)CC2)c2ncccc2c1` [Example 16, 8-{4-[4-(1-Benzofuran-3-yl)-1-piperazinyl]-1-piperidinyl}-6-chloroquinoline] the same measures were 1080 nM and 148 nM.

As to `Fc1ccc2occ(N3CCN(C4CCN(c5ccc(F)c6cccnc56)CC4)CC3)c2c1` [F, 5-fluoro-8-{4-[4-(5-fluoro-1-benzofuran-3-yl)-1-piperazinyl]-1-piperidinyl}quinoline], the IC50 in test [1] (setting [4]) was found to be 10.8 nM. The Ki in test [2] (setting [5]) worked out at 1.69 nM. For `COc1ccccc1N1CCN(C2CCN(c3csc4ccccc34)CC2)CC1` [G, 1-[1-(1-benzothien-3-yl)-4-piperidinyl]-4-(2-methoxyphenyl)piperazine], in test [2] (setting [5]), the Ki is 26.7 nM. This molecule gave an EC50 in test [3] of 22 nM. For `COc1ccccc1N1CCN(C2CCN(c3noc4ccccc34)CC2)CC1` [H, 3-{4-[4-(2-methoxyphenyl)-1-piperazinyl]-1-piperidinyl}-1,2-benzisoxazole], in that order: 1.45 nM and 2.53 nM. In the case of `Clc1cc(N2CCC(N3CCN(c4cccc5[nH]ccc45)CC3)CC2)c2ncccc2c1` [I, 6-Chloro-8-{4-[4-(1H-indole-4-yl)-1-piperazinyl]-1-piperidinyl}quinoline], affinity in test [2] was put at a Ki of 40.8 nM. For the molecule `COc1cc(N2CCN(C3CCN(c4c(F)ccc5cccnc45)CC3)CC2)c2ncccc2c1` [J, 8-{4-[1-(7-Fluoroquinolin-8-yl)piperidin-4-yl]piperazin-1-yl}-6-methoxyquinoline], in test [1] (setting [4]), the IC50 came out at 9.95 nM. The Ki in test [2] (setting [5]) is 0.61 nM. Consider `Fc1cc(N2CCN(C3CCN(c4ccc5cccnc5c4F)CC3)CC2)c2ncccc2c1` [K, 6-Fluoro-8-{4-[1-(8-fluoroquinolin-7-yl)piperidin-4-yl]piperazin-1-yl}quinoline], for which the Ki in test [2] (setting [5]) was 0.27 nM. A half-maximal response in test [3] (EC50) required 0.83 nM. Consider `COc1cc(N2CCN(C3CCN(Cc4cccc5cccnc45)CC3)CC2)c2ncccc2c1` [M, 6-Methoxy-8-{4-[1-(quinolin-8-ylmethyl)piperidin-4-yl]piperazin-1-yl}quinoline], for which, in test [1] (setting [4]), the 50% inhibitory concentration (IC50) was found to be 176 nM. Besides, the Ki in test [2] (setting [5]) is 75.7 nM. Turning to `COc1cc(N2CCN(C3CCN(c4ccc(F)c5c(OC)cc(C(F)(F)F)nc45)CC3)CC2)c2ncccc2c1` [N, 5-fluoro-4-methoxy-8-(4-(4-(6-methoxyquinolin-8-yl)piperazin-1-yl)piperidin-1-yl)-2-(trifluoromethyl)quinoline], in test [1], the 50% inhibitory concentration (IC50) came out at 9.2 nM. Besides, in test [2], the affinity corresponds to a Ki of 2.02 nM. Regarding `COc1cc(N2CCN(C3CCN(c4ccc(F)c5cccnc45)CC3)CC2)c2ncccc2c1` [P, 5-Fluoro-8-(4-(4-(6-methoxyquinolin-8-yl)piperazin-1-yl)piperidin-1-yl)-quinoline], the concentration for half-maximal inhibition (IC50) in test [1] (setting [4]) was determined as 3.7 nM.
